Source: article PMC4519872, “Characterization of the Interaction between Gallic Acid and Lysozyme by Molecular Dynamics Simulation and Optical Spectroscopy” (International Journal of Molecular Sciences, 2015)

Target: T1, lysozyme (LYS) (Gallus gallus, UniProt P00698)
T1 construct: gene LYZ; commercial lysozyme, Sigma-Aldrich, >=18,000 U; single chain of 129 residues; docking model PDB 1GWD
Test: intrinsic fluorescence quenching titration
Format: binding
Conditions: 298 K; Tris-HCl pH 7.43; excitation 282 nm; inner-filter corrected; double-log
Description: intrinsic fluorescence quenching titration on lysozyme (LYS)

T1 sequence (P00698 19-147): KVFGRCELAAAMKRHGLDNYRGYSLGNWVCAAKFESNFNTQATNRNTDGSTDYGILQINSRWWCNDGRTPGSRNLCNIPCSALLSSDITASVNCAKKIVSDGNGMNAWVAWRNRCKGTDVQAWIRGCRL

K: 393000 L/mol
Compound: O=C(O)c1cc(O)c(O)c(O)c1 [GA, 3,4,5-trihydroxybenzoic acid]
